Source: patent publication US20250304576A1 (Cancer Research Technology Limited, priority 2022, published 2025)

Target: T1, IKBKB (IKKβ) (Homo sapiens, UniProt O14920)
T1 construct: purchased Life Technologies (assay performed by the vendor)
T1 sequence (O14920 1-756): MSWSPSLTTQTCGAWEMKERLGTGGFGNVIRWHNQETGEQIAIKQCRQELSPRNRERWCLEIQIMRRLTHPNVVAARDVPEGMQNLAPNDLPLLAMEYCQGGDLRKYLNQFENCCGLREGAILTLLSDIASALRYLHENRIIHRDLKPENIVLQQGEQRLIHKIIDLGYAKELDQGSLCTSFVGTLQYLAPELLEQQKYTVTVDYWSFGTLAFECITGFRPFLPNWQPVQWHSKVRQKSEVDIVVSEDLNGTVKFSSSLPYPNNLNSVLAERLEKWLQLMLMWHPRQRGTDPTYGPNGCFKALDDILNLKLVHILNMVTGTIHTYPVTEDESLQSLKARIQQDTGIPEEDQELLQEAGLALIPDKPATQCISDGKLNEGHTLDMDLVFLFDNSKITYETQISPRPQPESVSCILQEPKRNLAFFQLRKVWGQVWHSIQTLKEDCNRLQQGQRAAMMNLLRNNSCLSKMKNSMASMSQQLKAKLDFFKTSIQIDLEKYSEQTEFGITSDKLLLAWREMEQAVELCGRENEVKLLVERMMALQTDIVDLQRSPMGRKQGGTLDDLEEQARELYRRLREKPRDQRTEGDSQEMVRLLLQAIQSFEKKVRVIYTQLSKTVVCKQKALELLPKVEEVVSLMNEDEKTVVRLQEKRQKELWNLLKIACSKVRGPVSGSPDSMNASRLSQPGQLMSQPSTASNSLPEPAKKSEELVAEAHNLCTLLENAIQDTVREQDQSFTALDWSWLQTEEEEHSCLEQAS
Assay: Z'-LYTE IKKβ assay (Life Technologies)
Type: biochemical
Conditions: not given
Procedure: IKKα and IKKβ inhibitory activity was determined using three different assays: a dissociation enhanced ligand fluorescent immunoassay (DELFIA) based on the protocol of HTScan™ IKKβ Kinase Assay (Cell Signaling Technology, USA); an Adapta IKKα assay (performed by Life Technologies); a Z′-LYTE™ IKKβ assay (performed by Life Technologies).
The reaction was performed in low volume NBS, black 384-well plates (Corning model 4514).
The test compounds were screened in 1% DMSO (final) in the well. For 10 point titrations, 3-fold serial dilutions were conducted from the starting concentration of 50 mM.
The 2× IKBKB (IKKβ)/Ser/Thr 05 mixture was prepared in 50 mM HEPES pH 7.5, 0.01% BRIJ-35, 10 mM MgCl2, 1 mM EGTA. The final 10 μL Kinase Reaction consisted of 0.62-4 ng IKBKB (IKKβ) and 2 μM Ser/Thr 05 in 50 mM HEPES pH 7.5, 0.01% BRIJ-35, 10 mM MgCl2, 1 mM EGTA.
5 μL of 2× Kinase reaction was incubated with 2.5 μL of ATP solution diluted to a 4× working concentration in Kinase Buffer (50 mM HEPES pH 7.5, 0.01% BRIJ-35, 10 mM MgCl2, 1 mM EGTA) in the presence of […] of 100× test compound in 100% DMSO and 2.4 μL of Kinase buffer.
The resulting kinase reaction was allowed to incubate for 1 hour at room temperature before 5 μL of a 1:64 dilution of Development Reagent B was added and the resulting Development Reaction was incubated for another hour at room temperature. Then the plate was read on a fluorescence plate reader and the data analysed.
A ratiometric method, which calculated the Emission Ratio of donor emission (i.e. coumarin) to acceptor emission (i.e. fluorescein) after excitation of the donor fluorophore at 400 nm, was used to quantitate reaction progress, as shown in the equation below.

Row | IC50 | SMILES
1 | 350 nM | Nc1n[nH]c2ccc(-c3ccnc4[nH]c(CN5CCCCCC5)cc34)cc12 [Example 265, 5-(2-(Azepan-1-ylmethyl)-1H-pyrrolo[2,3-b]pyridine-4-yl)-1H-indazol-3-amine]
2 | 138 nM | Nc1n[nH]c2ccc(-c3ccnc4[nH]c(CCN5CCOCC5)cc34)cc12 [Example 268, 5-(2-(2-Morpholinoethyl)-1H-pyrrolo[2,3-b]pyridin-4-yl)-1H-indazol-3-amine]
3 | 790 nM | CC(C)N(C)Cc1cc2c(-c3ccc4[nH]nc(N)c4c3)ccnc2[nH]1 [Example 259, 5-(2-((Isopropyl(methyl)amino)methyl)-1H-pyrrolo[2,3-b]pyridine-4-yl)-1H-indazol-3-amine]
4 | 17 nM | Nc1n[nH]c2ccc(-c3ccnc4[nH]c(C5CC5)cc34)cc12 [Example 218, 5-(2-Cyclopropyl-1H-pyrrolo[2,3-b]pyridin-4-yl)-1H-indazol-3-amine]
5 | 454 nM | Nc1n[nH]c2ccc(-c3ccnc4[nH]c(CN5CCCCC5)cc34)cc12 [Example 260, 5-(2-(Piperidin-1-ylmethyl)-1H-pyrrolo[2,3-b]pyridine-4-yl)-1H-indazol-3-amine]
6 | 1430 nM | CC(C)(C)NCc1cc2c(-c3ccc4[nH]nc(N)c4c3)ccnc2[nH]1 [Example 248, 5-(2-((tert-Butylamino)methyl)-1H-pyrrolo[2,3-b]pyridine-4-yl)-1H-indazol-3-amine]
7 | 810 nM | Nc1n[nH]c2ccc(-c3ccnc4[nH]c(C5CCCCN5)cc34)cc12 (stereo not drawn) [Example 250, 5-(2-(Piperidin-2-yl)-1H-pyrrolo[2,3-b]pyridine-4-yl)-1H-indazol-3-amine]
8 | 60 nM | Nc1n[nH]c2ccc(-c3ccnc4[nH]c(CC5CCOCC5)cc34)cc12 [Example 230, 5-(2-((tetrahydro-2H-pyran-4-yl)methyl)-1H-pyrrolo[2,3-b]pyridin-4-yl)-1H-indazol-3-amine]
9 | 20 nM | Nc1n[nH]c2ccc(-c3ccnc4[nH]c(C(=O)NC5CCCCC5)cc34)cc12 [Example 236, 4-(3-Amino-1H-indazol-5-yl)-N-cyclohexyl-1H-pyrrolo[2,3-b]pyridine-2-carboxamide]
10 | 405 nM | Nc1n[nH]c2ccc(-c3ccnc4[nH]c(CNC5CCCCC5)cc34)cc12 [Example 251, 5-(2-((cyclohexylamino)methyl)-1H-pyrrolo[2,3-b]339yridine-4-yl)-1H-indazol-3-amine]
11 | 790 nM | Nc1n[nH]c2ccc(-c3ccnc4[nH]c(C(=O)N5CCCC5)cc34)cc12 [Example 234, (4-(3-Amino-1H-indazol-5-yl)-1H-pyrrolo[2,3-b]pyridin-2-yl)(pyrrolidin-1-yl)methanone]
12 | 53 nM | Nc1n[nH]c2ccc(-c3ccnc4[nH]c(CC5CCNCC5)cc34)cc12 [Example 272, 5-(2-(Piperidin-4-ylmethyl)-1H-pyrrolo[2,3-b]pyridin-4-yl)-1H-indazol-3-amine]
13 | 286 nM | Nc1n[nH]c2ccc(-c3ccnc4[nH]c(CN5CCC(F)(F)CC5)cc34)cc12 [Example 261, 5-(2-((4,4-Difluoropiperidin-1-yl)methyl)-1H-pyrrolo[2,3-b]pyridine-4-yl)-1H-indazol-3-amine]
14 | 111 nM | Nc1n[nH]c2ccc(-c3ccnc4[nH]c(CCCN5CCOCC5)cc34)cc12 [Example 271, 5-(2-(3-Morpholinopropyl)-1H-pyrrolo[2,3-b]pyridin-4-yl)-1H-indazlo-3-amine]
15 | 1140 nM | Nc1n[nH]c2c(C#CCCCN3CCCCC3)cc(-c3ccnc4[nH]ccc34)cc12 [Example 212, 7-(5-(Piperidin-1-yl)pent-1-yn-1-yl)-5-(1H-pyrrolo[2,3-b]pyridin-4-yl)-1H-indazol-3-amine]
16 | 46 nM | Nc1n[nH]c2ccc(-c3ccnc4[nH]c(CCCN5CCCCC5)cc34)cc12 [Example 269, 5-(2-(3-(Piperidin-1-yl)propyl)-1H-pyrrolo[2,3-b]pyridin-4-yl)-1H-indazol-3-amine]
17 | 483 nM | CC(C)(C)Cc1cc2c(-c3ccc4[nH]nc(N)c4c3)ccnc2[nH]1 [Example 220, 5-(2-Neopentyl-1H-pyrrolo[2,3-b]pyridin-4-yl)-1H-indazol-3-amine]

More lines, now with the values behind:

Row | SMILES | IC50
18 | Nc1n[nH]c2c(C#CC3CCCCC3)cc(-c3ccnc4[nH]ccc34)cc12 [Example 204, 7-(Cyclohexylethynyl)-5-(1H-pyrrolo[2,3-b]pyridin-4-yl)-1H-indazol-3-amine] | 13500 nM
19 | CC(C)(C)C#Cc1cc(-c2ccnc3[nH]ccc23)cc2c(N)n[nH]c12 [Example 201, 7-(3,3-Dimethylbut-1-yn-1-yl)-5-(1H-pyrrolo[2,3-b]pyridin-4-yl)-1H-indazol-3-amine] | 1200 nM
20 | CC(C)(C)OCc1cc2c(-c3ccc4[nH]nc(N)c4c3)ccnc2[nH]1 [Example 227, 5-(2-(tert-Butoxymethyl)-1H-pyrrolo[2,3-b]pyridin-4-yl)-1H-indazol-3-amine] | 388 nM
21 | C#Cc1cc(-c2ccnc3[nH]ccc23)cc2c(N)n[nH]c12 [Example 200, 7-Ethynyl-5-(1H-pyrrolo[2,3-b]pyridin-4-yl)-1H-indazol-3-amine] | 158 nM
22 | CC(C)(O)C#Cc1cc(-c2ccnc3[nH]ccc23)cc2c(N)n[nH]c12 [Example 206, 4-(3-Amino-5-(1H-pyrrolo[2,3-b]pyridin-4-yl)-1H-indazol-7-yl)-2-methylbut-3-yn-2-ol] | 294 nM
23 | Nc1n[nH]c2c(C#CC3CCCC3)cc(-c3ccnc4[nH]ccc34)cc12 [Example 203, 7-(Cyclopentylethynyl)-5-(1H-pyrrolo[2,3-b]pyridin-4-yl)-1H-indazol-3-amine] | 1530 nM

Same assay, conditions: Life Technologies assay

Row | IC50 | SMILES
24 | 2300 nM | CC(C)(C)C#Cc1cc(-c2ccnc(N)c2)cc2c(N)n[nH]c12 [Example 137, 5-(2-Aminopyridin-4-yl)-7-(3,3-dimethylbut-1-yn-1-yl)-1H-indazol-3-amine]
25 | 206 nM | Nc1nccc(-c2ccc3[nH]nc(N)c3c2)c1C#CC1CCCC1 [Example 73, 5-(2-Amino-3-(cyclopentylethynyl)pyridine-4-yl)-1H-indazol-3-amine]
26 | 25 nM | Nc1nccc(-c2ccc3[nH]nc(N)c3c2)c1C#CCCCO [Example 85, 5-(2-Amino-4-(3-amino-1H-indazol-5-yl)pyridine-3-yl)pent-4-yn-1-ol]
27 | 36 nM | CC(C)(O)C#Cc1c(-c2ccc3[nH]nc(N)c3c2)ccnc1N [Example 87, 4-(2-Amino-4-(3-amino-1H-indazol-5-yl)pyridine-3-yl)-2-methylbut-3-yn-2-ol]
28 | 505 nM | Nc1nccc(-c2ccc3[nH]nc(N)c3c2)c1C#CC1(O)CCCCCC1 [Example 91, 1-((2-Amino-4-(3-amino-1H-indazol-5-yl)pyridine-3-yl)ethynyl)cycloheptan-1-ol]
29 | 101 nM | Nc1nccc(-c2ccc3[nH]nc(N)c3c2)c1C#Cc1ccccc1 [Example 75, 5-(2-Amino-3-(phenylethynyl)pyridine-4-yl)-1H-indazol-3-amine]
30 | 53 nM | Nc1nccc(-c2ccc3[nH]nc(N)c3c2)c1C#CCCO [Example 84, 4-(2-Amino-4-(3-amino-1H-indazol-5-yl)pyridine-3-yl)but-3-yn-1-ol]
31 | 162 nM | Nc1cc(-c2cc(-c3ccccc3)c3[nH]nc(N)c3c2)ccn1 [Example 104, 5-(2-Aminopyridin-4-yl)-7-phenyl-1H-indazol-3-amine]
32 | 36 nM | Nc1nccc(-c2ccc3[nH]nc(N)c3c2)c1C#CCO [Example 83, 3-(2-Amino-4-(3-amino-1H-indazol-5-yl)pyridine-3-yl)prop-2-yn-1-ol]

Row | SMILES | IC50
33 | CC(C)(C)OCC#Cc1c(-c2ccc3[nH]nc(N)c3c2)ccnc1N [Example 88, 5-(2-Amino-3-(3-(tert-butoxy)prop-1-yn-1-yl)pyridine-4-yl)-1H-indazol-3-amine] | 442 nM
